Data as given in US20220211663A1, “NANO CO-DELIVERY OF QUERCETIN AND ALANTOLACTONE PROMOTES ANTI-TUMOR RESPONSE THROUGH SYNERGISTIC IMMUNOGENIC CELL DEATH FOR MICROSATELLITE-STABLE COLORECTAL CANCER” (The University of North Carolina at Chapel Hill, priority 2019, published 2022).

How the values were obtained:
[1] = system: CT26-FL3 cells; assay: CRT translocation by immunofluorescence (ICD); type: cell-based, murine; conditions: free Q alone 0.07 μM, 4 h
Experimental: (§1) CT26-FL3 cells were seeded in 35-mm cell culture dishes with glass bottom at the density of 2×10^5 per dish and incubated for 24 h before treatment. The cell culture medium was removed and replenished with different combination of Q and A containing media at the indicated concentrations for 4 h for CRT detection and for 8 h for HMGB1 detection. Cells were fixed and washed 3 times. A primary antibody, anti-CRT antibody (ab2907, 1:500, Abcam), diluted in cold blocking buffer (10% goat serum in PBS), was added for 60 min. After three washes in cold PBS, cells were then incubated for 60 min with the Alexa Fluor® 488 Goat Anti-Rabbit (IgG) (ab150077, 1:500, Abcam) diluted in a cold blocking buffer. Cells were fixed with 4% PFA for 20 min, and DAPI Mounting Medium was added for nuclear staining. For intracellular HMGB1 staining, cells were fixed and washed 3 times. Afterwards, cells were permeabilized with 0.1% Triton X-100 containing blocking buffer for 10 min, and rinsed three times with PBS, and nonspecific binding sites were blocked for 30 min A primary antibody for HMGB1 (ab79823, 1:500, Abcam) was added for 60 min. Cells were then incubated for 60 min with the Alexa Fluor® 488 Goat Anti-Rabbit (IgG) (ab150077, 1:500, Abcam) diluted in a cold blocking buffer. Cells were fixed with 4% PFA for 20 min, and DAPI Mounting Medium was added for nuclear staining. […]

[2] = system: CT26-FL3 cells; assay: HMGB1 release by immunofluorescence (ICD); type: cell-based, murine
Experimental: as §1

[3] = system: CT26-FL3 cells; assay: MTT cytotoxicity and combination index (Chou and Talalay); type: cell-based, murine; conditions: Mus musculus, 24 h incubation, read-out: IC50 of Q alone
Experimental: The cytotoxicity of free Q, free A and drugs combination against CT26-FL3 cells were assessed using the MTT (3-[4,5-dimethylthiazol-2-yl]-2,5-diphenyltetrazolium bromide) method. Zhang et al., 2017. Cells were seeded in 96-well plates (5×10^3 cells per well) and incubated for 24 h before treatment. Then the culture medium was withdrawn and fresh medium containing free drugs and drug combination with a series of concentration were added to each well. Following 24-h incubation, cell viability was determined by MTT assay. The synergy of Q and A was evaluated by using the Chou and Talalay method to calculate the combination index (CI). Zhang et al., 2014; Chou et al., 1984. CI was calculated by using the following equation (1): CI=(D)1/(Dx)1+(D)2/(Dx)2 (1) […]

[4] = Maximum concentration of free drug in lecithin suspension (sink condition); type: physicochemical; conditions: lecithin suspension 100 mg/mL
Experimental: The release behaviors of Q and A from QA-M were investigated by a dialysis method. The QA-M (2 mL) was placed into a preswelled dialysis bag (cutting Mw 8000), which was then immersed into empty lecithin suspension (PC-98T, 100 mg/mL, 100 mL) at 37° C. for 72 hours under stirring at a speed of 100 rpm. The lecithin suspension was formed by film-hydration method followed by sonication and the size of this lecithin suspension was around 100 nm. Sink condition was confirmed by determination of the maximum concentration for free Q and A in the lecithin suspension, which was 0.5 mg/mL and 0.8 mg/mL, respectively. At different time points, 1.0 mL of sample was withdrawn from the release medium, mixed with methanol and measured for the Q and A using the HPLC method mentioned above. The release medium was replenished with an equal volume of fresh medium at 37° C. Sink condition was maintained throughout the experiment. All measurements were performed in triplicate, and the mean values and standard deviations are calculated.

[5] = system: orthotopic CT26-FL3 tumors; assay: Orthotopic colon tumor growth inhibition and survival; type: in vivo, Balb/c mice; conditions: i.v. four times every other day, Q 3 mg/kg, A 9 mg/kg
Experimental: An orthotopic CT26-FL3 colorectal tumor model was established in female Balb/c mice as reported previously. Song et al., 2018. Twenty-eight tumor-bearing mice were divided into seven random groups: PBS, free Q (Q-F), free A (A-F), combination of free Q and A (QA-F), Q-M, A-M and QA-M. Formulations were intravenously injected to mice once every 2 days by total four injections (i.v.) with a Q dose of 3 mg/kg and A dose of 9 mg/kg. Mice in PBS groups were injected with PBS as control. The tumor burden was detected by intraperitoneal (i.p.) injection of 100 μL of D-luciferin (Pierce™, 20 mg/mL) followed by bioluminescent analysis using an IVIS® Kinetics Optical System (Perkin Elmer, Calif.). The tumor growth and body weight of mice were recorded every 2 days. The increment of tumor volume was calculated as luminescence intensities and normalized to the original value on the first day of measurement (Vt/V0). Body weight of mice in each group was documented. Nine days after the last injection, mice were sacrificed and the tumor, heart, liver, spleen, lung and kidney tissues were removed and used for the present study. Blood samples were collected from the orbital plexus into heparinized tubes and then centrifuged at 5,000 rpm for five minutes to separate the plasma. One portion of tumor, spleen and lymph nodes were collected for flow cytometric analysis. […]

Row | maximum concentration in the lecithin suspension [4] | SMILES | CRT translocation [1] | HMGB1 release ([2]; free Q alone 0.33 μM, 8 h) | release of HMGB1 compared to control group ([2]; single drug: Q 0.33 μM, A 1.3 μM) | IC50 [3] | tumor growth [5]
1 | 0.5 mg/mL | O=c1c(O)c(-c2ccc(O)c(O)c2)oc2cc(O)cc(O)c12 [Q, quercetin] | minimum or undetectable effect | minimum or undetectable effect | undetectable release | 148 µM | 
2 |  | O=c1c(O)c(-c2ccc(O)c(O)c2)oc2cc(O)cc(O)c12 [Q-F, quercetin] |  |  |  |  | very similar to that of QA-F
